According to BindingDB's records for doi:10.1016/j.bmcl.2010.10.033 (Glaxosmithkline, 2010):

Legend:
[1] = Antagonist activity at CCR5 in HOS cells assessed as inhibition of HIV-1 Ba-L infection
[2] = Antagonist activity at CCR5 in human peripheral blood lymphocytes cells assessed as inhibition of HIV-1 Ba-L infection

IC50 [1] [nM] | IC50 [2] [nM] | Structure (SMILES)
2.6 | 11 | CCCCN(C(=O)NCc1ccc(C#N)cc1)C1CCN(CCC2(c3cccc(F)c3)CCN(C(=O)c3cc(S(=O)(=O)NC(C)(C)C)c(F)cc3Cl)CC2)CC1 [N-tert-butyl-5-(4-(2-(4-(1-butyl-3-(4-cyanobenzyl)ureido)piperidin-1-yl)ethyl)-4-(3-fluorophenyl)piperidine-1-carbonyl)-4-chloro-2-fluorobenzenesulfonamide]
26 | 146 | C=CCN(C(=O)NCc1ccc(C(=O)OC)cc1)C1CCN(CCC2(c3cccc(F)c3)CCN(C(=O)c3cc(S(=O)(=O)NC(C)(C)C)c(F)cc3Cl)CC2)CC1 [methyl 4-((3-allyl-3-(1-(2-(1-(5-(N-tert-butylsulfamoyl)-2-chloro-4-fluorobenzoyl)-4-(3-fluorophenyl)piperidin-4-yl)ethyl)piperidin-4-yl)ureido)methyl)benzoate]
